{
  "source": "patent US6121269A",
  "about": "“Reduction of hair growth” (priority 1999, dated 2000)",
  "key": {"protein-tyrosine kinase": {"system": "protein-tyrosine kinase", "test": "Protein-Tyrosine Kinase Assay (human skin/hair follicle extract, Calbiochem kit)", "assay_type": "biochemical", "conditions": "inhibitor 1 mM, human skin supernatant fraction", "protocol": "Protein-tyrosine kinase activity was measured in human skin samples rich in hair follicles using a commercially available assay kit (Calbiochem). Human skin obtained from a local plastic surgeon as a by-product of face-lift procedures was homogenized in four volumes of the extraction buffer containing 20 mM Tris-HCL, pH7.4, 50 mM NaCl, 1 mM EDTA, 1 mM EGTA, 5 mM mercaptoethanol. The samples were centrifuged for 10 min at 16,000×g to remove the membrane/organelle fractions. The supernatant fraction was used for the tyrosine kinase assay. Adding 25 ml of the 20× concentrated solution to 475 ml of deionized water and mixing made a working solution of plate wash buffer. The kinase buffer was prepared by adding 50 ul/ml of the 2 mM ATP stock solution to 1× sample buffer without 2-mercatoethanol. (90 ul of the kinase buffer/well).For the enzyme assay, 10 ul of each sample was added to a well. 10 ul of Abl standard, as positive controls, were added to a well. The kinase reaction was started by adding 90 ul of 1× kinase buffer/well and incubated at room temp for 30 minutes. The contents of each well was washed six times with 1× wash buffer, 100 ul of PY20 antibody diluted 1:200 with 1× Sample/kinase reaction buffer (without ATP) (15 ul to 3 ml) were added and the combination incubated for 30 minutes. The test solutions were washed with wash buffer, and 100 ul of substrate solution were added to each and incubated in the dark for 6 minutes. 100 ul of stop solution were added, and the UV absorbance read at 450 nm. The increase in UV absorbance at 450 nm provided a measure of the enzyme activity.\nThe ability of protein-tyrosine kinase inhibitors to inhibit the skin/hair follicle enzyme activity was determined by measuring protein-tyrosine kinase activity in the presence and absence of the inhibitor. For enzyme inhibition studies, the inhibitor was added to the reaction mixture at a concentration of 1 mM following addition of the enzyme sample."}, "human hair follicles": {"system": "human hair follicles", "test": "Human Hair Follicle Growth Assay", "assay_type": "cell-based", "protocol": "Human hair follicles in growth phase (anagen) were isolated from face-lift tissue under a dissecting scope using a scalpel and watchmakers forceps. The skin was sliced into thin strips exposing 2-3 rows of follicles that could readily be dissected. […] Hair follicles were videorecorded in the 24-well plates under the dissecting scope under a power of 20×. Hair follicle lengths were assessed using an image analysis software system (Computer Eyes and NIH Image). Typically, initial recordings were made on day 0 (day follicles were placed in culture), and on days 1, 4, and 7.\nThe effect of five protein-tyrosine kinase inhibitors on human hair follicle growth was determined by exposing the isolated follicles to the enzyme inhibitors. The hair follicle lengths were determined before and after the inhibitor treatment.\nIn another experiment isolated hair follicles were exposed to either 1 mM or 0.01 mM concentration of the protein-tyrosine kinase inhibitor erbstatin, and the hair growth rate was compared to control. Measurements were made at days 0, 1 and 4."}, "[1]": {"conditions": "isolated human follicles, inhibitor 500 μM"}, "[2]": {"conditions": "isolated human follicles, inhibitor 500 μM, vs control"}, "[3]": {"conditions": "isolated human follicles, inhibitor 250 μM"}, "[4]": {"conditions": "isolated human follicles, inhibitor 50 μM"}},
  "note": "Where two headings read alike, the source gives them in different places.",
  "data": [
    {"compound": "N#CC(=Cc1ccc(O)c(O)c1)C(N)=S", "note": "[Tryphostin A47, α-cyano-(3,4-dihydroxy)thiocinnamide]", "values": [
      {"measurement": "% Inhibition (protein-tyrosine kinase activity)", "setting": "protein-tyrosine kinase", "value": 16, "unit": "%"}
    ]},
    {"compound": "O=CN/C=C/c1cc(O)ccc1O", "note": "[Erbstatin, erbstatin]", "values": [
      {"measurement": "Posttreatment (Day-1) Growth", "setting": "human hair follicles; 0.01 mM", "value": 0.1, "unit": "mm"},
      {"measurement": "Posttreatment (Day-1) Length", "setting": "human hair follicles; 0.01 mM", "value": "3.1 ± .20 mm"},
      {"measurement": "Posttreatment (Day-4) Growth", "setting": "human hair follicles; 0.01 mM", "value": 0.8, "unit": "mm"},
      {"measurement": "Posttreatment (Day-4) Length", "setting": "human hair follicles; 0.01 mM", "value": "3.8 ± .29 mm"},
      {"measurement": "Posttreatment (Day-1) Growth", "setting": "human hair follicles; 1 mM", "value": 0.0, "unit": "mm"},
      {"measurement": "Posttreatment (Day-1) Length", "setting": "human hair follicles; 1 mM", "value": "3.0 ± .17 mm"},
      {"measurement": "Posttreatment (Day-4) Growth", "setting": "human hair follicles; 1 mM", "value": 0.3, "unit": "mm"},
      {"measurement": "Posttreatment (Day-4) Length", "setting": "human hair follicles; 1 mM", "value": "3.3 ± .15 mm"},
      {"measurement": "inhibition at 10 µM", "setting": "human hair follicles; Homo sapiens, 24 h, 0.01 mM, day 1, vs control, read-out: Posttreatment (Day-1) Inhibition", "value": 83, "unit": "%"},
      {"measurement": "inhibition at 1000 µM", "setting": "human hair follicles; Homo sapiens, 24 h, 1 mM, day 1, vs control, read-out: Posttreatment (Day-1) Inhibition", "value": 100, "unit": "%"},
      {"measurement": "inhibition at 10 µM", "setting": "human hair follicles; Homo sapiens, 96 h, 0.01 mM, day 4, vs control, read-out: Posttreatment (Day-4) Inhibition", "value": 11, "unit": "%"},
      {"measurement": "inhibition at 1000 µM", "setting": "human hair follicles; Homo sapiens, 96 h, 1 mM, day 4, vs control, read-out: Posttreatment (Day-4) Inhibition", "value": 67, "unit": "%"},
      {"measurement": "Hair Growth", "setting": "human hair follicles; [1]", "value": 0.3, "unit": "mm"},
      {"measurement": "Post-treatment hair follicle length", "setting": "human hair follicles; [1]", "value": "3.9 ± .10 mm"},
      {"measurement": "inhibition at 500 µM", "setting": "human hair follicles; [2]", "value": 73, "unit": "%"}
    ]},
    {"compound": "CO[C@H]1[C@@H](OC)C[C@H](C)[C@@H](OC)C2=CC(=O)C=C(NC(=O)/C(C)=C/C=C\\[C@H](OC)[C@@H](OC(N)=O)/C(C)=C/[C@@H]1C)C2=O", "note": "[Herbimycin, herbimycin A]", "values": [
      {"measurement": "% Inhibition (protein-tyrosine kinase activity)", "setting": "protein-tyrosine kinase", "value": 37, "unit": "%"}
    ]},
    {"compound": "COC(=O)/C=C/c1ccc(O)c(O)c1", "note": "[methyl caffeate]", "values": [
      {"measurement": "Hair Growth", "setting": "human hair follicles; [1]", "value": 0.6, "unit": "mm"},
      {"measurement": "Post-treatment hair follicle length", "setting": "human hair follicles; [1]", "value": "4.1 ± .17 mm"},
      {"measurement": "inhibition at 500 µM", "setting": "human hair follicles; [2]", "value": 40, "unit": "%"},
      {"measurement": "% Inhibition (protein-tyrosine kinase activity)", "setting": "protein-tyrosine kinase", "value": 100, "unit": "%"}
    ]},
    {"compound": "COc1cc2ncnc(Nc3cccc(Cl)c3)c2cc1OC", "note": "[Tryphostin AG 1478, 4-(3-Chloroanilino)-6,7-dimethoxyquinazoline]", "values": [
      {"measurement": "inhibition at 250 µM", "setting": "human hair follicles; Homo sapiens, read-out: % Inhibition (hair growth)", "value": 40, "unit": "%"},
      {"measurement": "Hair Growth", "setting": "human hair follicles; [3]", "value": 0.6, "unit": "mm"},
      {"measurement": "Post-treatment hair follicle length", "setting": "human hair follicles; [3]", "value": "3.8 ± .19 mm"}
    ]},
    {"compound": "N-acetyl-Asp-Tyr-(2-malonyl)-Val-Pro-Met-Leu-NH2", "values": [
      {"measurement": "% Inhibition (protein-tyrosine kinase activity)", "setting": "protein-tyrosine kinase", "value": 83, "unit": "%"}
    ]},
    {"compound": "O=C(O)c1cc(N(Cc2ccccc2O)Cc2cc(O)ccc2O)ccc1O", "note": "[Lavendustin A, lavendustin A]", "values": [
      {"measurement": "Hair Growth", "setting": "human hair follicles; [4]", "value": 0, "unit": "mm"},
      {"measurement": "Post-treatment hair follicle length", "setting": "human hair follicles; [4]", "value": "3.5 ± .12 mm"},
      {"measurement": "inhibition at 50 µM", "setting": "human hair follicles; isolated human follicles, inhibitor 50 μM, vs control", "value": 100, "unit": "%"},
      {"measurement": "% Inhibition (protein-tyrosine kinase activity)", "setting": "protein-tyrosine kinase", "value": 59, "unit": "%"}
    ]},
    {"compound": "CC(=O)OCOC(c1ccc2ccccc2c1)P(=O)(OCOC(C)=O)OCOC(C)=O", "note": "(stereo not drawn) [HNMPA(AM)3, hydroxy-2-naphthalenylmethylphosphonic acid tris acetoxymethyl ester]", "values": [
      {"measurement": "% Inhibition (protein-tyrosine kinase activity)", "setting": "protein-tyrosine kinase", "value": 66, "unit": "%"}
    ]},
    {"compound": "N#CC(=Cc1ccc(O)cc1)C(N)=C(C#N)C#N", "note": "[Tryphostin A48, 2-amino-4-(4'-hydroxyphenyl)-1,1,3-tricyanobuta-1,3-diene]", "values": [
      {"measurement": "Hair Growth", "setting": "human hair follicles; [1]", "value": 0.1, "unit": "mm"},
      {"measurement": "Post-treatment hair follicle length", "setting": "human hair follicles; [1]", "value": "3.3 ± .16 mm"},
      {"measurement": "inhibition at 500 µM", "setting": "human hair follicles; [2]", "value": 91, "unit": "%"}
    ]}
  ]
}
